We go through nine molecules from patent publication US4918066A, “Substituted 4-benzylpiperazinyl compounds” (Ciba-Geigy Corporation, priority 1989, dated 1990).

The test system of data set [1] is Mycobacterium tuberculosis TB H3 Rv. The data set can be described thus: Activity against Mycobacterium tuberculosis TB H3 Rv, ED50 p.o. (Table 1). It counts as in vivo. As to conditions: TBH3RV, po.
A short description of data set [2]: Pharmacokinetics in mice (Table 1). It counts as in vivo. As to conditions: mouse; for half-life: in vivo, read-out: t/2 (halflife of the elimination) (converted); for Cmax: plasma, read-out: Cmax (maximum concentration in the plasma).
In data set [3] the test system is Mycobacterium tuberculosis TB H3 Rv. As to the kind of experiment: Activity against Mycobacterium tuberculosis TB H3 Rv in vitro, MIC (Table 1). It counts as cell-based. The following applies: TBH3RV, read-out: MIC (minimum inhibitory concentration). The source says: (a) minimum inhibitory concentration (1 mcg = 1.10^-5 g)
The next data set has as its system M. intracellular K 551. As to the kind of experiment: MIC against atypical Mycobacteria, non-photochromogenic (Table II). Format: cell-based. The following applies: read-out: MIC (minimum inhibitory concentration). The source says:
(§1) MIC = minimum inhibitory concentration (1 mcg = 1.10^-5 g)

The subject of another data set is M. intracellular K 546. The data set is described as above. It counts as cell-based. As to conditions: read-out: MIC (minimum inhibitory concentration).
Excerpt: as §1

The test system of another data set is M. intracellular K 653. The data set is described as above. Format: cell-based. The following applies: read-out: MIC (minimum inhibitory concentration).
Excerpt: as §1

The subject of a further data set is M. avium K 536. The description is as above. Format: cell-based. As to conditions: Mycobacterium avium, K536, read-out: MIC (minimum inhibitory concentration).
Excerpt: as §1

The subject of the next data set is M. intracellular K 550. The data set is described as above. The following applies: read-out: MIC (minimum inhibitory concentration). Format: cell-based.
Excerpt: as §1

A further data set deals with M. intracellular K 181. The description is as above. It counts as cell-based. The following applies: read-out: MIC (minimum inhibitory concentration).
Excerpt: as §1

The subject of another data set is M. kansasii K 367. As to the kind of experiment: MIC against atypical Mycobacteria, photochromogenic (Table II). Format: cell-based. The following applies: Mycobacterium kansasii, K367, read-out: MIC (minimum inhibitory concentration).
Excerpt: as §1

Data set [4] can be described thus: Pharmacokinetics in rats (Table 1). It counts as in vivo. The following applies: rat; for Cmax: plasma, read-out: Cmax (maximum concentration in the plasma); for half-life: in vivo, read-out: t/2 (halflife of the elimination) (converted). The source says: (c) Cmax = maximum concentration in the plasma (1 mcg = 1.10^-5
A further data set relates to M. scrofulaceum K 1166. As to the kind of experiment: MIC against atypical Mycobacteria, scotochromogenic (Table II). It counts as cell-based. The following applies: Mycobacterium scrofulaceum, K1166, read-out: MIC (minimum inhibitory concentration).
Excerpt: as §1

Another data set relates to M. xenopei K 716. The description is as above. Format: cell-based. The following applies: Mycobacterium xenopi, K716, read-out: MIC (minimum inhibitory concentration).
Excerpt: as §1

Another data set has as its system M. aquae K 1165. The data set is described as above. Format: cell-based. The following applies: read-out: MIC (minimum inhibitory concentration).
Excerpt: as §1

A short description of data set [5]: Retention time in the organism / long-term activity. It counts as in vivo. As to conditions: for activity in respect of pharmacokinetics: vs known 3-piperazinyl-rifamycins; for retention time in the organism: vs rifampicin or compounds 1 to 4 of U.S. Pat. No. 4,005,077.
For another data set, the system named is atypical Mycobacteria. As to the kind of experiment: Antimicrobial activity in vitro against atypical Mycobacteria. It counts as cell-based, Mycobacterium. As to conditions: against a number of atypical Mycobacteria; vs rifampicin. The source says: This excellent activity is especially pronounced in group c, i.e. non-photochromogenic micro-organisms, which are among the most dangerous pathogens of AIDS infections.

≈ marks a conversion by molar mass, not a printed value.

One may read the ED50 as the dose at which the effect has come halfway, by size or by number of responders. Low values mean greater potency, high ones weaker potency. As for `COC1C=COC2(C)Oc3c(C)c(O)c4c(O)c(c(N5CCN(Cc6ccc(C)cc6)CC5)c(O)c4c3C2=O)NC(=O)C(C)=CC=CC(C)C(O)C(C)C(O)C(C)C(OC(C)=O)C1C` (stereo not drawn) [Compound 3, 3-[4-(p-methylbenzyl)-piperazin-1-yl]-rifamycin SV], in data set [1], the ED50 amounted to 1.2 mg/kg. Besides, in [2], the half-life is 11.5 h and the Cmax was 2280 ng/mL. Also, the MIC in [3] is 0.0001 µg/mL (≈ 0.000113 µM).

Consider `COC1C=COC2(C)Oc3c(C)c(O)c4c(O)c(c(N5CCN(CC(C)C)CC5)c(O)c4c3C2=O)NC(=O)C(C)=CC=CC(C)C(O)C(C)C(O)C(C)C(OC(C)=O)C1C` (stereo not drawn) [Compound 5, 3-(4-isobutylpiperazin-1-yl)-rifamycin SV], for which it took a dose of 1 mg/kg to reach the 50% effect level in data set [1] (ED50). Also, in data set [2], the half-life was 12 h and the Cmax was determined as 1200 ng/mL. Also, in data set [3], the MIC was 0.0001 µg/mL (≈ 0.000119 µM).

In turn, `C=C(C)CN1CCN(c2c3c(O)c4c(O)c(C)c5c(c4c2O)C(=O)C(C)(OC=CC(OC)C(C)C(OC(C)=O)C(C)C(O)C(C)C(O)C(C)C=CC=C(C)C(=O)N3)O5)CC1` (stereo not drawn) [Compound 6] had an ED50 in [1] of 1 mg/kg. Besides, in data set [2], the half-life was 21 h and the Cmax came out at 1400 ng/mL. Besides, the MIC in [3] was found to be 0.0003 µg/mL (≈ 0.000359 µM).

Molecule `COC1C=COC2(C)Oc3c(C)c(O)c4c(O)c(c(N5CCN(Cc6cccc(C)c6)CC5)c(O)c4c3C2=O)NC(=O)C(C)=CC=CC(C)C(O)C(C)C(O)C(C)C(OC(C)=O)C1C` (stereo not drawn) [Compound 2] came in with an ED50 in data set [1] of 1.4 mg/kg. Further, in data set [2], the half-life is 11.9 h and the Cmax came out at 3390 ng/mL. Further, the MIC in data set [3] came to 0.0003 µg/mL (≈ 0.000339 µM).

For `CO[C@H]1/C=C/O[C@@]2(C)Oc3c(C)c(O)c4c(O)c(c(/C=N/N5CCN(C)CC5)c(O)c4c3C2=O)NC(=O)/C(C)=C\C=C\[C@H](C)[C@H](O)[C@@H](C)[C@@H](O)[C@@H](C)[C@H](OC(C)=O)[C@@H]1C` [Rifampicin], the MIC in the data set on M. intracellular K 551 was 1 µg/mL (≈ 1.22 µM); in the data set with M. intracellular K 546, 16 µg/mL (≈ 19.4 µM); in the data set on M. intracellular K 653, 2 µg/mL (≈ 2.43 µM); in the data set on M. avium K 536 it was 64 µg/mL (≈ 77.8 µM); in the data set with M. intracellular K 550, 8 µg/mL (≈ 9.72 µM); in the data set on M. intracellular K 181 it was 0.5 µg/mL (≈ 0.608 µM). For the same molecule, the MIC amounted to 0.25 µg/mL (≈ 0.304 µM) in the data set on M. kansasii K 367; 1 µg/mL (≈ 1.22 µM) with M. scrofulaceum K 1166; 1 µg/mL (≈ 1.22 µM) in the data set with M. xenopei K 716; 0.25 µg/mL (≈ 0.304 µM) in the data set on M. aquae K 1165; 0.003 µg/mL (≈ 0.00365 µM) in [3]. For the same molecule, it took a dose of 5.9 mg/kg to reach the 50% effect level in data set [1] (ED50). Moreover, the Cmax was determined as 2480 ng/mL in [2] and 1390 ng/mL in data set [4].

Take `COC1C=COC2(C)Oc3c(C)c(O)c4c(O)c(c(N5CCN(Cc6c(C)cc(C)cc6C)CC5)c(O)c4c3C2=O)NC(=O)C(C)=CC=CC(C)C(O)C(C)C(O)C(C)C(OC(C)=O)C1C` (stereo not drawn) [A, 3-[4-(2,4,6-trimethylbenzyl)-piperazin-1-yl]-rifamycin SV]: the MIC in the data set with M. intracellular K 551 is 0.25 µg/mL (≈ 0.273 µM); with M. intracellular K 546 it was 0.125 µg/mL (≈ 0.137 µM); with M. intracellular K 653, 0.125 µg/mL (≈ 0.137 µM); with M. avium K 536, 0.5 µg/mL (≈ 0.547 µM); with M. intracellular K 550, 0.25 µg/mL (≈ 0.273 µM); in the data set with M. intracellular K 181 it was 0.03 µg/mL (≈ 0.0328 µM). The MIC in the data set with M. kansasii K 367 was determined as 0.015 µg/mL (≈ 0.0164 µM); in the data set with M. scrofulaceum K 1166, 0.03 µg/mL (≈ 0.0328 µM); in the data set with M. xenopei K 716, 1 µg/mL (≈ 1.09 µM); in the data set on M. aquae K 1165, 0.03 µg/mL (≈ 0.0328 µM); in [3], 0.003 µg/mL (≈ 0.00328 µM). This molecule gave a median effective dose (ED50) in [1] of 4 mg/kg. The values for the half-life in data set [2] and in [4] were 47.4 h and about 450 h, respectively. Also, the Cmax turned out to be 2950 ng/mL in data set [2] and 1510 ng/mL in [4]. Moreover, the “activity in respect of pharmacokinetics” value in data set [5] is “superior activity in respect of pharmacokinetics”. In addition, the “retention time in the organism” value in data set [5] is listed as “appreciably longer than that of rifampicin or of compounds 1 to 4”. Besides, in the data set on atypical Mycobacteria, the “antimicrobial activity in vitro compared with rifampicin” value is on record as “several times greater than the antimicrobial activity exhibited by rifampicin”.

Consider `COC1C=COC2(C)Oc3c(C)c(O)c4c(O)c(c(N5CCN(Cc6cccc7ccccc67)CC5)c(O)c4c3C2=O)NC(=O)C(C)=CC=CC(C)C(O)C(C)C(O)C(C)C(OC(C)=O)C1C` (stereo not drawn) [B, 3-[4-(1-naphthylmethyl)-piperazin-1-yl]rifamycin SV], for which the MIC in the data set on M. intracellular K 551 is 1 µg/mL (≈ 1.08 µM); with M. intracellular K 546, 1 µg/mL (≈ 1.08 µM); in the data set with M. intracellular K 653 it was 0.25 µg/mL (≈ 0.271 µM); with M. avium K 536, 1 µg/mL (≈ 1.08 µM); with M. intracellular K 550 it was 1 µg/mL (≈ 1.08 µM); in the data set with M. intracellular K 181 it was 0.125 µg/mL (≈ 0.136 µM). Besides, the MIC was 0.015 µg/mL (≈ 0.0163 µM) in the data set with M. kansasii K 367; 0.06 µg/mL (≈ 0.0651 µM) in the data set with M. scrofulaceum K 1166; 0.5 µg/mL (≈ 0.542 µM) with M. xenopei K 716; 0.03 µg/mL (≈ 0.0325 µM) in the data set on M. aquae K 1165; 0.0003 µg/mL (≈ 0.000325 µM) in data set [3]. In data set [1], this molecule registered an ED50 of 3 mg/kg. In addition, the figures for the half-life in data set [2] and in [4] were 48.5 h and 111 h, respectively. In addition, the Cmax in data set [2] was determined as 1880 ng/mL; in data set [4], 1120 ng/mL. The “activity in respect of pharmacokinetics” value in data set [5] is given as “superior activity in respect of pharmacokinetics”. The “retention time in the organism” value in data set [5] was “appreciably longer than that of rifampicin or of compounds 1 to 4”. Besides, the “antimicrobial activity in vitro compared with rifampicin” value in the data set on atypical Mycobacteria is on record as “several times greater than the antimicrobial activity exhibited by rifampicin”.

With `COC1C=COC2(C)Oc3c(C)c(O)c4c(O)c(c(N5CCN(Cc6ccccc6C)CC5)c(O)c4c3C2=O)NC(=O)C(C)=CC=CC(C)C(O)C(C)C(O)C(C)C(OC(C)=O)C1C` (stereo not drawn) [Compound 1, 3-[4-(o-methylbenzyl)-piperazin-1-yl]-rifamycin SV], the median effective dose (ED50) in [1] turned out to be 1.4 mg/kg. Further, in data set [2], the half-life was 22.9 h and the Cmax was 2690 ng/mL. Further, in data set [4], the half-life was 86 h and the Cmax worked out at 1320 ng/mL. Further, in data set [3], the MIC is 0.001 µg/mL (≈ 0.00113 µM).

Turning to `COC1C=COC2(C)Oc3c(C)c(O)c4c(O)c(c(N5CCN(Cc6ccc(C(C)C)cc6)CC5)c(O)c4c3C2=O)NC(=O)C(C)=CC=CC(C)C(O)C(C)C(O)C(C)C(OC(C)=O)C1C` (stereo not drawn) [Compound 4, 3-[4-(p-isopropylbenzyl)-piperazin-1-yl]-rifamycin SV], the 50% effect level in data set [1] (ED50) was put at a dose of 1.5 mg/kg. In data set [2], the half-life was 20.4 h and the Cmax amounted to 1810 ng/mL. In addition, in [3], the MIC came out at 0.003 µg/mL (≈ 0.00328 µM).
